Reference: US6562838B2, “Treatment of cardiovascular disease with quinolinone enantiomers” (R. T. Alamo Ventures I, L.L.C., priority 2001, dated 2003)
“Also recorded” adds a separate entry of the source.

What was measured:
[1] = target: T1, PDE6 partially purified from bovine retinal rod and activated by trypsin (Bos taurus, UniProt P11541+P23439); experiment: PDE6 inhibition assay, Viagra vs racemic flosequinan (Example 1); assay type: biochemical
T1 construct: from tissue; host or cells: bovine retinal rod
T1 sequence (P11541 2-856 limits assumed): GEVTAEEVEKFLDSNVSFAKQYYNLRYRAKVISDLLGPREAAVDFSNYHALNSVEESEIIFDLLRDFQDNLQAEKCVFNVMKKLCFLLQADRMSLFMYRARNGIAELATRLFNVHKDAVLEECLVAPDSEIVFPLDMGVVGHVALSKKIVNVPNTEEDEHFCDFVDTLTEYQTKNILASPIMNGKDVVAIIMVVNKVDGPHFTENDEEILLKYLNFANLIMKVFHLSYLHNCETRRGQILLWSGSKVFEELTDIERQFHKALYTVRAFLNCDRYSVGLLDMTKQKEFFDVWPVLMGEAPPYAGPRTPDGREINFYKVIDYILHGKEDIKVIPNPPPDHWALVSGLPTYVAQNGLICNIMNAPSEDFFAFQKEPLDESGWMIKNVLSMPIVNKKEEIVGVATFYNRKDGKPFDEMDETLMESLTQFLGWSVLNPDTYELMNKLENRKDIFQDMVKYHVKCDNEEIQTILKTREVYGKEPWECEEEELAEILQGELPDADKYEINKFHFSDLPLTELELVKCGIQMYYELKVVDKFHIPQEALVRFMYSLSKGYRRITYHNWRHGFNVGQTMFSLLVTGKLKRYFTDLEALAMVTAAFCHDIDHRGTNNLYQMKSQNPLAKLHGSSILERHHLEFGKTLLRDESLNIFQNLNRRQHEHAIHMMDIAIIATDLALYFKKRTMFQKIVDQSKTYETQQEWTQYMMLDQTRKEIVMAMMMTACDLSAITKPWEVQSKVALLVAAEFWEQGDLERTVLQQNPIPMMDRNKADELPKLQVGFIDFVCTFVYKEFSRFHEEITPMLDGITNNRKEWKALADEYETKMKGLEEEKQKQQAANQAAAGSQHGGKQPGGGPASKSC
T1 sequence (P23439 2-850 limits assumed): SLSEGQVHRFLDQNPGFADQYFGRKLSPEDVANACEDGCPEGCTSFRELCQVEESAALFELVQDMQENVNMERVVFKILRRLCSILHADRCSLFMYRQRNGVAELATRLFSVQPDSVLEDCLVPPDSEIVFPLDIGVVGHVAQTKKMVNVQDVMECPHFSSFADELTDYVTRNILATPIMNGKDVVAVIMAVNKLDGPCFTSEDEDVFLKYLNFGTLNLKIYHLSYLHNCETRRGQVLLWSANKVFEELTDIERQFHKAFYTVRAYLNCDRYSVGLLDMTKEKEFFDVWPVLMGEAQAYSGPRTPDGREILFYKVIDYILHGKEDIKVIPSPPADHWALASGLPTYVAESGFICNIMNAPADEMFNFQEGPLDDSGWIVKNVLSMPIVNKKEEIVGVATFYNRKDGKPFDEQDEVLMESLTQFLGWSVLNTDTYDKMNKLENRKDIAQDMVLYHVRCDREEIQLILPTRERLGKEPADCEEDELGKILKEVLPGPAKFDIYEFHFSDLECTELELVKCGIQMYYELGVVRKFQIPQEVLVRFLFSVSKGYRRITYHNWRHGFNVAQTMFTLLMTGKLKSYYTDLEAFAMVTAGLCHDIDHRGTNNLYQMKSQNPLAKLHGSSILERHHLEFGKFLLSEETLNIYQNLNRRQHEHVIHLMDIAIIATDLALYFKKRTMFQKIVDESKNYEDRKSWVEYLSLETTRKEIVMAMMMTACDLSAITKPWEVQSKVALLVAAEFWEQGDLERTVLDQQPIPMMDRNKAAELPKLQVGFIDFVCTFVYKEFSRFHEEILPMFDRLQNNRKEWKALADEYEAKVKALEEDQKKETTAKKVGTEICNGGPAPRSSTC
Procedure: (§1) PDE6 partially purified from bovine retinal rod and activated by trypsin was used. In four separate reactions, Viagra at molar concentrations of 0.3 μM, 1.0 μM, and 3.0 μM, and a 100 μM racemic mixture of flosequinan were incubated with 0.2 μg/ml active PDE6 and 100 μM cGMP containing 0.1 μM [^3H]cGMP in Tris buffer pH 7.5 for 20 minutes at 30° C. Each reaction was terminated by raising the temperature to 100° C. for 2 minutes. The resulting GMP was converted to guanosine by addition of 10 mg/ml snake venom nucleotidase and further incubated at 30° C. for 10 minutes. Unhydrolyzed cGMP was bound to AGI-X2 resin, and [^3H]guanosine remaining in the aqueous phase was quantitated by scintillation counting.

[2] = system: PDE4 partially purified from human U-937 pronocytic cells; experiment: PDE4 enzyme inhibition assay (Example 3); assay type: biochemical; settings: 100 μM
Procedure: (§2) In this example, a racemic mixture of flosequinan and the (+) and (−) enantiomers of flosequinan were subjected to biochemical enzyme assays to determine their respective percent inhibition of a variety of phosphodiesterases (PDE1-PDE6). The reaction conditions for each PDE assay were as follows.
(§3) PDE4 partially purified from human U-937 pronocytic cells was used. A racemic mixture of flosequinan, and each enantiomer of flosequinan, all at a molar concentration of 100 μM, were independently incubated with 20 μg PDE4 enzyme and 1 μM cAMP containing 0.01 μM [^3H]cAMP in Tris buffer pH 7.5 for 20 minutes at 30° C. The reaction was terminated by boiling for 2 minutes, and the resulting AMP was converted to adenosine by addition of 10 mg/ml snake venom nucleotidase and further incubation at 30° C. for 10 minutes. Unhydrolyzed cAMP was bound to AGI-X2 resin, and the remaining [^3H]adenosine in the aqueous phase was quantitated by scintillation counting.

Solubility = assay type: physicochemical
Excerpt: Thus, while the present invention is not limited by the form of oral administration, aqueous and organic solution of an enantiomer of flosequinan for oral administration is contemplated. Likewise, an enantiomer of flosequinan can be associated with a solid pharmaceutical carrier for solid oral administration (i.e., in pill form).

[3] = system: phosphodiesterase III (PDE3); settings: Gristwood et al. 1992; Frodsham et al. 1992; cited from earlier work
[4] = target: T2, PDE1 partially purified from bovine heart (Bos taurus, UniProt P14100); experiment: PDE1 enzyme inhibition assay (Example 3); assay type: biochemical; settings: 100 μM
T2 construct: PDE1 partially purified from bovine heart was used; from tissue; host or cells: bovine heart
Procedure: as §2
as §3, with “PDE1 partially” for “PDE4 partially”, “from bovine heart” for “from human U-937 pronocytic cells”, “with 13” for “with 20”, “μg PDE1 enzyme, 1.0” for “μg PDE4 enzyme and 1 μM cAMP containing 0.01”, “[^3H]cAMP and CaCl2/calmodulin” for “[^3H]cAMP”

[5] = target: T3, PDE2 partially purified from human platelets (Homo sapiens, UniProt O00408); experiment: PDE2 enzyme inhibition assay (Example 3); assay type: biochemical; settings: 100 μM
T3 construct: PDE2 partially purified from human platelets was used; from tissue; host or cells: human platelets
Procedure: as §2
as §3, with “PDE2 partially” for “PDE4 partially”, “human platelets” for “human U-937 pronocytic cells”, “with 23” for “with 20”, “μg PDE2 enzyme, 25” for “μg PDE4 enzyme and 1”, “containing 0.05” for “containing 0.01”

[6] = target: T4, PDE3 partially purified from human platelets (Homo sapiens, UniProt Q14432); experiment: PDE3 enzyme inhibition assay (Example 3); assay type: biochemical; settings: for % Inhibition of PDE3: 100 μM
T4 construct: PDE3 partially purified from human platelets was used; from tissue; host or cells: human platelets
Procedure: as §2
as §3, with “PDE3 partially” for “PDE4 partially”, “human platelets” for “human U-937 pronocytic cells”, “with 13” for “with 20”, “μg PDE3” for “μg PDE4”

[7] = target: T5, PDE5 partially purified from human platelets (Homo sapiens, UniProt O76074); experiment: PDE5 enzyme inhibition assay (Example 3); assay type: biochemical; settings: 100 μM
T5 construct: PDE5 partially purified from human platelets was used; from tissue; host or cells: human platelets
Procedure: as §2
PDE5 partially purified from human platelets was used. A racemic mixture of flosequinan, and each enantiomer of flosequinan, all at a molar concentration of 100 μM, were independently incubated with 120 μg PDE5 enzyme and 1 μM cGMP containing 0.01 μM [^3H]cGMP in Tris buffer pH 7.5 for 20 minutes at 30° C. The reaction was terminated by boiling for 2 minutes, and the resulting GMP was converted to guanosine by addition of 10 mg/ml snake venom nucleotidase and further incubation at 30° C. for 10 minutes. Unhydrolyzed cGMP was bound to AGI-X2 resin, and the remaining [^3H]guanosine in the aqueous phase was quantitated by scintillation counting.

[8] = target: T1, PDE6 partially purified from bovine retinal rod and activated by trypsin; experiment: PDE6 enzyme inhibition assay (Example 3); assay type: biochemical; settings: 100 μM
Procedure: as §2
as §1, with “A” for “In four separate reactions, Viagra at molar concentrations of 0.3 μM, 1.0 μM, and 3.0 μM, and a 100 μM”, “flosequinan, and each enantiomer of flosequinan, all at a molar concentration of 100 μM,” for “flosequinan”, “were independently” for “were”, “boiling” for “raising the temperature to 100° C.”, “nucleotidase,” for “nucleotidase”

T4 sequence (Q14432 whole entry): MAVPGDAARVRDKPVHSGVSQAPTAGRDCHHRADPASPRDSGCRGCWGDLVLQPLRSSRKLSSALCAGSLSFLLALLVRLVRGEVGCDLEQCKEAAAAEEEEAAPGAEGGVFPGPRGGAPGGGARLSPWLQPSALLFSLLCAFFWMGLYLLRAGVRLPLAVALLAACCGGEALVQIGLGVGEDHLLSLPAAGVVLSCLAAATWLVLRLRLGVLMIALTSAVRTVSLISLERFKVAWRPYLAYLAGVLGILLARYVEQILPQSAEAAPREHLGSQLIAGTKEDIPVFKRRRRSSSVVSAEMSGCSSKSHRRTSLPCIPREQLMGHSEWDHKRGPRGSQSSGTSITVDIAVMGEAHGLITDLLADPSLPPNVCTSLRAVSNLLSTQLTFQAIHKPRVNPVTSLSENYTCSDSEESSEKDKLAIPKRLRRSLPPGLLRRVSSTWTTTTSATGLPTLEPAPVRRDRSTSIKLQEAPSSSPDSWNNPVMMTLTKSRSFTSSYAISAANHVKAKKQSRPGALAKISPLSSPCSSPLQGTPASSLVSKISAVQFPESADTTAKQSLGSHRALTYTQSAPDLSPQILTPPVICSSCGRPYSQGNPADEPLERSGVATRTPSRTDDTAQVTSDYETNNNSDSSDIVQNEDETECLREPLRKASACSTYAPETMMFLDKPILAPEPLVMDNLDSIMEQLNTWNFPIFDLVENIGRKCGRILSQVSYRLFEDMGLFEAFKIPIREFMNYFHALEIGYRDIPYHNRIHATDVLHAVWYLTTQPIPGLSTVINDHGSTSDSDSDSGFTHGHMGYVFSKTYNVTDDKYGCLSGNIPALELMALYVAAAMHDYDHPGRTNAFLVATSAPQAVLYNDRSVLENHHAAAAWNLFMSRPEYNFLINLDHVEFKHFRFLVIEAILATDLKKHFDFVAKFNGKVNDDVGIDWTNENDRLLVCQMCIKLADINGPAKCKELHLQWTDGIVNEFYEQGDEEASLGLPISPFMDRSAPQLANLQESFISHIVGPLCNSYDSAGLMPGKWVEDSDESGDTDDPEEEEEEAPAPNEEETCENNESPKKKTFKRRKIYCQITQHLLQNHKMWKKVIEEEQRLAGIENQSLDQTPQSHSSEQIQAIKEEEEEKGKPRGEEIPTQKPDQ
T3 sequence (O00408 whole entry): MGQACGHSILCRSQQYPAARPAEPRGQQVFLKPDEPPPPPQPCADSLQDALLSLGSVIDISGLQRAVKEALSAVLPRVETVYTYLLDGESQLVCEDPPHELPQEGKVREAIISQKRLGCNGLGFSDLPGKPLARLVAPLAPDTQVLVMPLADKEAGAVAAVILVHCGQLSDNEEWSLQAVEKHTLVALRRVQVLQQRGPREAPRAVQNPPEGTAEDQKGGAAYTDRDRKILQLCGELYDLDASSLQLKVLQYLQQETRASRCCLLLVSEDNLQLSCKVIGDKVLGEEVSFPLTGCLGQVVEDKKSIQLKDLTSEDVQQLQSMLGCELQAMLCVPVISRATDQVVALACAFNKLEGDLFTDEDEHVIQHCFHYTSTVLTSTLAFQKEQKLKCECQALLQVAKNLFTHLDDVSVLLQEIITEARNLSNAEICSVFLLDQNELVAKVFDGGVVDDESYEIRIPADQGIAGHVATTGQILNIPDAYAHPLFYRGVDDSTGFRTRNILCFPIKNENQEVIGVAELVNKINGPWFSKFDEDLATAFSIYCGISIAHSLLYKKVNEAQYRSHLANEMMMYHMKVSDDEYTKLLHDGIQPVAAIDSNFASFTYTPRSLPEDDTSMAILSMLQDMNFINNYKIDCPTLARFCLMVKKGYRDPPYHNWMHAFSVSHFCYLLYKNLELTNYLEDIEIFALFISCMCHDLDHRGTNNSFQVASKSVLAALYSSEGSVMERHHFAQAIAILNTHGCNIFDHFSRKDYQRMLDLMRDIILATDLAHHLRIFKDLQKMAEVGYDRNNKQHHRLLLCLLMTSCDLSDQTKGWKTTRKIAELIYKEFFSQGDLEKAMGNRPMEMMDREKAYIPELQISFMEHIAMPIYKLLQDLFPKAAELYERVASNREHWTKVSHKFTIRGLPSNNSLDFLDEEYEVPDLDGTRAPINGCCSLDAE

Cn1cc([S+](C)[O-])c(=O)c2ccc(F)cc21 (racemic) [Flosequinan, 7-fluoro-1-methyl-3-(methylsulphinyl)-4(1H)-quinolone]
inhibition of PDE6 compared to sildenafil citrate ([1]; 100 μM vs sildenafil citrate 1 μM (100-fold lower molar concentration)): approximately half as much inhibition of PDE6
times more compound on a molar basis than Viagra for around 50% PDE6 inhibition ([1]; vs Viagra 0.3 μM): more than 300 times
% Inhibition of PDE4 [2]: 24%
solubility in organic solvents (Solubility; organic solvents): soluble in many organic solvents
solubility in water (Solubility; water): water soluble
reported phosphodiesterase selectivity [3]: selective inhibitor of phosphodiesterase III (PDE3)

Cn1cc([S@@+](C)[O-])c(=O)c2ccc(F)cc21 [(+)−flosequinan]
% Inhibition of PDE1 [4]: 28%
PDE1 inhibitory activity compared with the (−) enantiomer of flosequinan [4]: more PDE1 and PDE3 inhibitory activity
% Inhibition of PDE2 [5]: 18%
% Inhibition of PDE3 [6]: 32%
PDE3 inhibition compared to racemic mixture of flosequinan ([6]; same molar concentration): greater inhibition of PDE3
PDE3 inhibition compared to the (−) enantiomer of flosequinan ([6]; same molar concentration, listed as (+) enantiomer of flosequinan): more PDE1 and PDE3 inhibitory activity; also recorded: eight-fold increase
% Inhibition of PDE4 [2]: 6%
% Inhibition of PDE5 [7]: 17%
% Inhibition of PDE6 [8]: 22%

Cn1cc([S+](C)[O-])c(=O)c2ccc(F)cc21 (stereo not drawn) [(−)−flosequinan]
% Inhibition of PDE1 [4]: 11%
% Inhibition of PDE2 [5]: 13%
% Inhibition of PDE3 [6]: 5%
% Inhibition of PDE4 [2]: 1%
% Inhibition of PDE5 [7]: 10%
% Inhibition of PDE6 [8]: 21%

Cn1cc(C(N)=O)c(=O)c2sccc21 [Example 4 b, 4-methyl-7-oxo-4,7-dihydrothieno[3,2-b]pyridine-6-carboxamide]
melting point: 255 to 258 °C

Cn1cc(C(N)=O)c(=O)c2ccc(Cl)cc21 [Example 4 e, 7-chloro-1-methyl-4-oxo-1,4-dihydroquinoline-3-carboxamide]
melting point: > 240 °C
